# Patent US10792335B2, “Rapid-acting insulin composition comprising a substituted citrate” (ADOCIA, priority 2015, dated 2020)
# Peptide text beside a SMILES is read from it. * marks the point of attachment. Cbz = O=C(OCc1ccccc1)*
# Assays:
# [1] = Solubility in a buffer solution at 50 mM Tris/HCl pH 7.4 (visual inspection); assay type: physicochemical
# Description: The solubility of the substituted citrates (A1, A2, A3 and A4) was measured in a buffer solution.
# In a buffer solution at 50 mM of Tris/HCl, pH 7.4 (1 mL), the substituted citrate in powder form (20 mg) is introduced. The tubes are stirred (rolling shaker) for 30 minutes at ambient temperature, then inspected visually. The pH is adjusted to 7.4±0.4.
# The solubility of the compounds of the prior art (CE1 and CE2) was measured.
# 4 mL of a buffer solution at 50 mM of Tris/HCl at pH 7.4 were introduced into a glass tube, at ambient temperature. The compounds in powder form were added successively in the amount of 8 mg per addition. After each addition of compound, the tubes were stirred (rolling shaker) for 30 minutes at ambient temperature, then inspected visually. The pH is adjusted to 7.4±0.4.
# The concentrations at which insoluble matter was observed are defined as being greater than the limit of solubility of the compound.
# [2] = Solubility in the presence of insulin lispro 100 IU/mL (commercial Humalog, visual inspection); assay type: physicochemical; details: commercial insulin lispro solution (Humalog) 100 IU/mL, aqueous with cosolvent or surfactant or cyclodextrin, thermodynamic from solid, pH 7.4±0.4, ambient temperature, 30 minutes stirring, read-out: Solubility (limit of solubility)
# Description: The solubility of the substituted citrates (A1, A2, A3 and A4) is measured in the presence of insulin lispro 100 U/mL. In a commercial solution of insulin lispro (Humalog®) (1 mL), the substituted citrate in powder form (20 mg) is introduced. The tube was stirred (rolling shaker) for 30 minutes at ambient temperature, then inspected visually. The pH is adjusted to 7.4±0.4.
# The solubility of the compounds of the prior art was also measured in the presence of insulin lispro 100 U/mL. 1 mL of a commercial solution of Humalog was introduced into a glass tube, at ambient temperature. The compounds in powder form were added successively in the amount of 2 mg per addition. After each addition of compound, the tubes were stirred (rolling shaker) for 30 minutes at ambient temperature, then inspected visually. The pH is adjusted to 7.4±0.4.
# The concentrations at which insoluble matter was observed are defined as being greater than the limit of solubility of the compound in the presence of insulin lispro 100 IU/mL.
# [3] = injected by the subcutaneous route, diabetic patients; cited from earlier work
# [4] = target: T1, hexameric R6 form of human insulin (Homo sapiens, UniProt P01308); assay: Association state of human insulin evaluated by circular dichroism (CD signal at 240 nm); assay type: physicochemical; details: human insulin 100 IU/mL (Humulin R), pH 7.4; additive alone (EDTA 300 μM or 6 mM; substituted citrate 7.3 or 14.6 mg/mL)
# T1 construct: The human insulin has a strong signal at 240 nm, characteristic of the hexameric R6 form
# T1 sequence (P01308 25-54 limits assumed): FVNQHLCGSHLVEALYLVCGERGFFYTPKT
# T1 sequence (P01308 90-110 limits assumed): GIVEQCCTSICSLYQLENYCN
# Description: Circular dichroism makes it possible to study the secondary and quaternary structures of insulin. The monomers of insulin self-organize to form dimers and hexamers. […] There are two hexameric forms, the R6 form and the T6 form. […] The loss of the signal at 240 nm is connected with a destabilization of the hexamer and the conversion from R6 to T6.
# For a final volume of 100 mL of formulation, with a concentration of substituted citrate at 7.3 mg/mL and a concentration of 9.3 mM of citrate, the different reagents are added in quantities specified below and in the following order:
# For a final volume of 100 mL of formulation, with a concentration of substituted citrate at 7.3 mg/mL or 14.6 mg/mL, the different reagents are added in the quantities specified below and in the following order:
# For a final volume of 100 mL of formulation, with a concentration of 300 μM or 6 mM of EDTA, the different reagents are added in the quantities specified below and in the following order:
# (§1) Two measurement series were carried out.
# [5] = target: T2, hexameric R6 form of insulin lispro (Homo sapiens, UniProt P01308, K53P/P52K); assay: Association state of the insulin lispro evaluated by circular dichroism (CD signal at 240 nm); assay type: physicochemical; details: insulin lispro 100 IU/mL (Humalog), pH 7.4; additive alone (EDTA 300 μM; substituted citrate 7.3 or 14.6 mg/mL)
# T2 construct: The insulin lispro has a strong signal at 240 nm characteristic of the hexameric R6 form; purchased Lilly
# T2 sequence (P01308 25-54 P52K/K53P limits assumed): as the sequence (P01308 25-54 limits assumed) above, with P28K, K29P counted along it
# Description: Circular dichroism makes it possible to study the secondary and quaternary structure of the insulin. The monomers of insulin self-organize to form dimers and hexamers. […] There are two hexameric forms, R6 form and T6 form. […] The loss of the signal at 240 nm is connected with a destabilization of the hexamer and the conversion from R6 to T6.
# For a final volume of 100 mL of formulation, with a concentration of substituted citrate at 7.3 mg/mL and a concentration of 9.3 mM of citrate, the different reagents are added in the quantities specified below and in the following order:
# For a final volume of 100 mL of formulation, with a concentration of substituted citrate at 7.3 mg/mL, the different reagents are added in the quantities specified below and in the following order:
# For a final volume of 100 mL of formulation, with a concentration of 300 μM of EDTA, the different reagents are added in the quantities specified below and in the following order:
# as §1
# Circular dichroism makes it possible to study the secondary and quaternary structures of insulin. The monomers of insulin self-organize to form dimers and hexamers. […]
# For a final volume of 100 mL of formulation, with a concentration of substituted citrate at 7.3 mg/mL or 14.6 mg/mL, the different reagents are added in the quantities specified below and in the following order: […]
# [6] = 50 mM Tris/HCl buffer, aqueous buffer, thermodynamic from solid, buffer solution 50 mM Tris/HCl, pH 7.4, ambient temperature, 30 minutes stirring, read-out: Solubility (limit of solubility)
# [7] = pH 7.4, thermodynamic from solid, medium not named at this place, sums up Tables 3 and 4 (Tris/HCl buffer and Humalog), read-out: limit of solubility (summary statement)
"solubility at 30 min [1, 6] [µg/mL]","solubility at 30 min [1, 7] [µg/mL]",solubility at 30 min [2] [µg/mL],impact on the CD signal at 240 nm / R6 form of the human insulin hexamer [4],impact on the CD signal at 240 nm / R6 form of the insulin lispro hexamer [5],Compound,time after which a hypoglycemic effect is produced [3] [min]
< 2000,< 2000,< 2000,–,–,"O=C(N[C@@H](Cc1ccccc1)C(=O)N[C@@H](Cc1ccccc1)C(=O)O)OCc1ccccc1 [CE1, N-Carbobenzoxy-L- phenylalanyl-L- phenylalanine] (Cbz-Phe-Phe-OH)",–
–,–,–,–,–,"human insulin: human insulin produced by genetic engineering, injected subcutaneously",60
–,–,–,completely destructures the R6 form,completely destructures the R6 form,O=C(O)CN(CCN(CC(=O)O)CC(=O)O)CC(=O)O [EDTA],–
< 2000,< 2000,< 2000,–,–,"O=C(N[C@@H](Cc1ccccc1)C(=O)O)c1ccccc1 [CE2, Benzoyl-L- phenylalanine]",–
